In brackets after ≈: the same amount, converted by molar mass.
Assays:
[1] = test system: Escherichia coli; assay: Antibiofilm activity against Escherichia coli 0157:H7 at 200 uM incubated for 24 hr by crystal violet staining based assay relative to control; type: functional
[2] = test system: Escherichia coli; assay: Antibiofilm activity against Escherichia coli 0157:H7 at 6.25 uM incubated for 24 hr by crystal violet staining based assay relative to control; type: functional
[3] = Inhibition of Escherichia coli 0157:H7 AI-2 incubated for 3.5 hrs in dark condition by microplate reader analysis
[4] = test system: Clostridioides difficile; assay: Antibacterial activity against Clostridium difficile ATCC 43255 assessed as bacterial growth inhibition incubated for 24 hrs by two-fold serial dilution method; type: functional
[5] = test system: Staphylococcus aureus; assay: Antibiofilm activity against Staphylococcus aureus 6538 incubated for 24 hr by crystal violet staining based assay; type: functional
[6] = test system: Bacillus subtilis; assay: Bactericidal activity against Bacillus subtilis as by CLSI-based micro broth dilution method; type: functional
[7] = test system: Staphylococcus aureus; assay: Antibiofilm activity against Staphylococcus aureus BAA44 at 0.78 ug/ml incubated for 24 hr by crystal violet staining based assay relative to control; type: functional
[8] = test system: Staphylococcus aureus; assay: Antibiofilm activity against Staphylococcus aureus BAA44 incubated for 24 hr by crystal violet staining based assay; type: functional
[9] = test system: Staphylococcus aureus; assay: Antibacterial activity against Staphylococcus aureus ATCC 29213 assessed as bacterial growth inhibition incubated for 18 hrs by CLSI-based broth microdilution method; type: functional
[10] = test system: Staphylococcus aureus; assay: Antibacterial activity against Staphylococcus aureus MSSA1 assessed bacterial growth inhibition by CLSI-based broth microdilution method; type: functional
[11] = test system: Staphylococcus aureus; assay: Antibiofilm activity against Staphylococcus aureus 6538 at 0.78 ug/ml incubated for 24 hr by crystal violet staining based assay relative to control; type: functional
[12] = Inhibition of His-tagged Escherichia coli ANS1 Fab1 using trans-2-octanoyl-N-acetylcysteamine as substrate by spectrometric analysis
[13] = test system: Staphylococcus xylosus; assay: Antibiofilm activity against Staphylococcus xylosus ATCC 700404 at 20 ug/ml incubated for 24 hr by crystal violet staining based assay relative to control; type: functional
[14] = Inhibition of FAS1 in Mycobacterium smegmatis mc2 155 transfected with pVV16 vector by BCA assay; set-up: species or system Mycolicibacterium smegmatis
[15] = test system: Staphylococcus xylosus; assay: Inhibition of Staphylococcus xylosus ATCC 700404 IGPD at 40 ug/ml relative to control; details: dose 40.0 µg/ml
[16] = Inhibition of FAS1 in Mycobacterium smegmatis mc2 155 transfected with pVV16 vector expressing Rv0636 by BCA assay; set-up: species or system Mycolicibacterium smegmatis
[17] = Inhibition of His-tagged Escherichia coli ANS1 FabG using acetoacetyl-CoA as substrate by spectrometric analysis
[18] = test system: Escherichia coli; assay: Antibacterial activity against Escherichia coli ANS1 assessed as bacterial growth inhibition incubated for 20 hrs by broth microdilution method; type: functional
[19] = test system: Staphylococcus xylosus; assay: Antibacterial activity against Staphylococcus xylosus ATCC 700404 assessed bacterial growth inhibition incubated for 24 hrs by Broth microdilution method; type: functional
[20] = Inhibition of FAS2 in Mycobacterium smegmatis mc2 155 transfected with pVV16 vector by BCA assay; set-up: species or system Mycolicibacterium smegmatis
[21] = Inhibition of FAS2 in Mycobacterium smegmatis mc2 155 transfected with pVV16 vector expressing Rv0636 by BCA assay; set-up: species or system Mycolicibacterium smegmatis
[22] = test system: Cutibacterium acnes; assay: Antibacterial activity against Propionibacterium acnes KCTC3314 assessed as bacterial growth inhibition incubated for 48 hrs by broth microdilution assay; type: functional
[23] = test system: Staphylococcus aureus; assay: Inhibition of Staphylococcus aureus ATCC 6538 LDH at 7.81 ug/ml relative to control; details: dose 7.81 µg/ml
[24] = test system: Candida albicans; assay: Inhibition of Candida albicans SC5314 hyphal transition at 74.55 ug/ml incubated for 24 hrs relative to control; type: functional
[25] = test system: Streptococcus pyogenes; assay: Antibiofilm activity against Streptococcus pyogenes ATCC 19615 at 23.4 ug/ml incubated for 1 hr by crystal violet staining based assay relative to control; type: functional; details: dose 23.4 µg/ml
[26] = test system: Staphylococcus aureus; assay: Antibiofilm activity against Staphylococcus aureus SA1199B at 128 ug/ml incubated for 18 to 24 hrs by broth microdilution method relative to control; type: functional; details: time 18-24 hrs
[27] = test system: Cutibacterium acnes; assay: Antibacterial activity against Propionibacterium acnes KCTC3220 assessed as bacterial growth inhibition incubated for 48 hrs by broth microdilution assay; type: functional
[28] = test system: Candida albicans; assay: Antifungal activity against Candida albicans SC5314 assessed as fungal growth inhibition incubated for 48 hrs by CLSI-based two-fold serial dilution method; type: functional
[29] = test system: Mycobacterium tuberculosis; assay: Antitubercular activity against XDR Mycobacterium tuberculosis X59 assessed as bacterial growth inhibition measured for 9 days; type: functional; details: X59, 216 h, time 9 day
[30] = test system: Staphylococcus aureus; assay: Antibiofilm activity against Staphylococcus aureus RN4220 incubated for 18 to 24 hrs by broth microdilution method; type: functional; details: time 18-24 hrs
[31] = test system: Streptococcus pyogenes; assay: Antibacterial activity against Streptococcus pyogenes ATCC 19615 assessed bacterial growth inhibition incubated for 24 hrs by double dilution method; type: functional
[32] = target: T1, Sortase B (Staphylococcus aureus, UniProt Q2FZE3); assay: Inhibition of Staphylococcus aureus sortase b transpeptidation expressed in Escherichia coli BL21 (DE3) cells using Fluorescent peptide as substrate at 16 ug/ml preincubated for 30 mins followed by substrate addition and measured for 1 hr by FRET assay
T1 sequence (Q2FZE3 whole entry): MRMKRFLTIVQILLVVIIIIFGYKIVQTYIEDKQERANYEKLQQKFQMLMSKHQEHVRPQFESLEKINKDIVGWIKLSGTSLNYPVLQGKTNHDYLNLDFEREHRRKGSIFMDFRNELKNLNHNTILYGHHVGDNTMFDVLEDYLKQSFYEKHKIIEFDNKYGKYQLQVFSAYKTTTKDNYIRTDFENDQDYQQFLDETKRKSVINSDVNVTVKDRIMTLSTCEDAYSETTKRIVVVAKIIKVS

[33] = test system: Staphylococcus aureus; assay: Antibacterial activity against Staphylococcus aureus Newman assessed as bacterial growth inhibition by CLSI-based broth micro-dilution method; type: functional
[34] = test system: Klebsiella pneumoniae; assay: Antibacterial activity against Klebsiella pneumoniae assessed bacterial growth inhibition by CLSI-based micro broth dilution method; type: functional
[35] = test system: Candida albicans; assay: Antibiofilm activity against Candida albicans ATCC SC5314 at 74.55 ug/ml incubated for 24 hr by crystal violet staining based assay relative to control; type: functional
[36] = test system: Cutibacterium acnes; assay: Antibacterial activity against Propionibacterium acnes KCTC5527 assessed as bacterial growth inhibition incubated for 48 hrs by broth microdilution assay; type: functional
[37] = test system: Staphylococcus aureus; assay: Antibiofilm activity against Staphylococcus aureus SA1199B incubated for 18 to 24 hrs by broth microdilution method; type: functional; details: time 18-24 hrs
[38] = test system: Mycobacterium tuberculosis; assay: Antitubercular activity against Mycobacterium tuberculosis H37Rv assessed as bacterial growth inhibition measured for 9 days; type: functional; details: 216 h, time 9 day
[39] = test system: Staphylococcus aureus; assay: Antibiofilm activity against Staphylococcus aureus RN4220 at 8 to 256 ug/ml incubated for 18 to 24 hrs by broth microdilution method relative to control; type: functional; details: dose 8-256 µg/ml; time 18-24 hrs; at 8 to 256 µg/mL
[40] = test system: Escherichia coli; assay: Antibiofilm activity against Escherichia coli 0157:H7 at 25 ug/ml incubated for 10 hrs by crystal violet staining based assay relative to control; type: functional
[41] = test system: Escherichia coli; assay: Antibiofilm activity against Escherichia coli 0157:H7 at 50 ug/ml incubated for 10 hrs by crystal violet staining based assay relative to control; type: functional
[42] = test system: Staphylococcus aureus; assay: Antibacterial activity against Staphylococcus aureus ATCC 25923 assessed as bacterial growth inhibition by CLSI-based broth micro-dilution method; type: functional
[43] = test system: Staphylococcus aureus; assay: Inhibition of Staphylococcus aureus ATCC 6538 IDH at 7.81 ug/ml relative to control; details: dose 7.81 µg/ml
[44] = test system: Pectobacterium brasiliense; assay: Antibiofilm activity against Pectobacterium brasiliense Pb1692 at 0.4 ug/ml incubated for 72 hr by crystal violet staining based assay relative to control; type: functional
[45] = test system: Candida albicans; assay: Antifungal activity against Candida albicans SC5314 assessed as fungal growth inhibition incubated for 48 hrs by CLSI protocol based assay; type: functional
[46] = test system: Listeria monocytogenes; assay: Antibiofilm activity against Listeria monocytogenes CMCC 54004 at 20 ug/ml by crystal violet staining based assay relative to control; type: functional
[47] = test system: Staphylococcus aureus; assay: Inhibition of Staphylococcus aureus ATCC 6538 Catalase at 7.81 ug/ml relative to control; details: dose 7.81 µg/ml
[48] = test system: Micrococcus luteus; assay: Antibacterial activity against Micrococcus luteus assessed bacterial growth inhibition by CLSI-based micro broth dilution method; type: functional
[49] = test system: Staphylococcus aureus; assay: Antibacterial activity against Staphylococcus aureus 8325-4 assessed as bacterial growth inhibition by CLSI-based broth micro-dilution method; type: functional
[50] = test system: Cutibacterium acnes; assay: Antibacterial activity against Propionibacterium acnes KCTC5933 assessed as bacterial growth inhibition incubated for 48 hrs by broth microdilution assay; type: functional
[51] = test system: Staphylococcus aureus; assay: Antibacterial activity against Staphylococcus aureus ATCC 29213 assessed as bacterial growth inhibition by CLSI-based broth micro-dilution method; type: functional
[52] = test system: Staphylococcus aureus; assay: Antibacterial activity against Staphylococcus aureus BAA 1707 assessed as bacterial growth inhibition by CLSI-based broth micro-dilution method; type: functional
[53] = test system: Staphylococcus aureus; assay: Antibiofilm activity against Staphylococcus aureus RN4220 at 1 ug/ml incubated for 18 to 24 hrs by broth microdilution method relative to control; type: functional; details: time 18-24 hrs
[54] = test system: Staphylococcus aureus; assay: Antibacterial activity against Staphylococcus aureus BAA 1717 assessed as bacterial growth inhibition by CLSI-based broth micro-dilution method; type: functional
[55] = test system: Staphylococcus aureus; assay: Antibacterial activity against Staphylococcus aureus ATCC 6538 assessed bacterial growth inhibition incubated for 24 hrs by CLSI-based broth dilution method; type: functional
[56] = test system: Mycobacterium tuberculosis; assay: Antitubercular activity against XDR Mycobacterium tuberculosis X24 assessed as bacterial growth inhibition measured for 9 days; type: functional; details: X24, 216 h, time 9 day

COc1cc(O)ccc1/C=C/C(=O)c1ccc(O)cc1 [ECHINATIN]
inhibition at 200 µM [1]: 71.5%
inhibition at 6.25 µM [2]: 40%
IC50 [3]: 21.7 µM

CC(C)=CCc1c(O)ccc(C(=O)/C=C/c2ccc(O)cc2)c1O [ISOBAVACHALCONE]
MIC [4]: 4 µg/mL (≈ 12.3 µM)
MBIC [5]: 0.78 µg/mL
MBC [6]: 4 µg/mL (≈ 12.3 µM)
inhibition at 0.78 µg/mL [7]: 80%
MBIC [8]: 0.78 µg/mL
MIC [9]: 4 µg/mL (≈ 12.3 µM)
MIC [10]: 0.5 µg/mL (≈ 1.54 µM)
inhibition at 0.78 µg/mL [11]: 75%

O=C(/C=C/c1ccc(O)cc1)c1ccc(O)cc1O [ISOLIQUIRITIGENIN]
IC50 [12]: 40 µM
inhibition at 20 µg/mL [13]: 45%
IC50 [14]: 96 µg/mL (≈ 375 µM)
inhibition [15]: 60%
IC50 [16]: 96 µg/mL (≈ 375 µM)
IC50 [17]: 20 µM
MIC [18]: 25 µM (≈ 6.41 µg/mL)
MIC [19]: 80 µg/mL (≈ 312 µM)
IC50 [20]: 7 µg/mL (≈ 27.3 µM)
IC50 [21]: 17 µg/mL (≈ 66.3 µM)

O=C(CCc1ccc(O)cc1)c1c(O)cc(O)cc1O [PHLORETIN]
MIC [22]: 16 µM (≈ 4.39 µg/mL)
inhibition [23]: 20%
inhibition at 74.55 µg/mL [24]: 80%
inhibition (INH) [25]: 46.4%
inhibition at 128 µg/mL [26]: ≥ 50%
MIC [27]: 16 µM (≈ 4.39 µg/mL)
MIC [28]: 74.5 µg/mL (≈ 272 µM)
MIC90 [29]: 182 µM (≈ 49.9 µg/mL)
MBIC50 [30]: 1 µg/mL
MIC [31]: 46.8 µg/mL (≈ 171 µM)
IC50 [32]: 35.5 µM
MIC [33]: 128 µg/mL (≈ 467 µM)
MIC50 [34]: 410 µM (≈ 112 µg/mL)
inhibition at 74.55 µg/mL [35]: 76%
MIC [36]: 16 µM (≈ 4.39 µg/mL)
MBIC50 [37]: 256 µg/mL
MIC90 [38]: 182 µM (≈ 49.9 µg/mL)
inhibition (INH) [39]: >70%
inhibition at 25 µg/mL [40]: 89%
inhibition at 50 µg/mL [41]: 93%
MIC [42]: 128 µg/mL (≈ 467 µM)
inhibition [43]: 60%
inhibition at 0.4 µg/mL [44]: > 60%
MIC [45]: 74.5 µg/mL (≈ 272 µM)
inhibition at 20 µg/mL [46]: 60%
inhibition [47]: 30%
IC50 [3]: 62.5 µM
MIC50 [48]: 230 µM (≈ 63.1 µg/mL)
MIC [49]: 128 µg/mL (≈ 467 µM)
MIC [50]: 16 µM (≈ 4.39 µg/mL)
MIC [51]: 128 µg/mL (≈ 467 µM)
MIC [52]: 128 µg/mL (≈ 467 µM)
inhibition at 1 µg/mL [53]: 60%
MIC [54]: 128 µg/mL (≈ 467 µM)
MIC [55]: 7.81 µg/mL (≈ 28.5 µM)
MIC90 [56]: 182 µM (≈ 49.9 µg/mL)

Source: ChEMBL document CHEMBL5365456, “Isolation and biological activity of natural chalcones based on antibacterial mechanism classification” (Bioorg Med Chem, 2023)
